The source made the active and inactive calls. No cut-off for these calls is given here.
What was measured:
[1] = target: T1, Prostaglandin G/H synthase 2 (Ovis aries) (UniProt P79208); test: Inhibition of ovine COX2 at 100 uM incubated for 5 mins by colorimetric assay
T1 sequence (whole entry): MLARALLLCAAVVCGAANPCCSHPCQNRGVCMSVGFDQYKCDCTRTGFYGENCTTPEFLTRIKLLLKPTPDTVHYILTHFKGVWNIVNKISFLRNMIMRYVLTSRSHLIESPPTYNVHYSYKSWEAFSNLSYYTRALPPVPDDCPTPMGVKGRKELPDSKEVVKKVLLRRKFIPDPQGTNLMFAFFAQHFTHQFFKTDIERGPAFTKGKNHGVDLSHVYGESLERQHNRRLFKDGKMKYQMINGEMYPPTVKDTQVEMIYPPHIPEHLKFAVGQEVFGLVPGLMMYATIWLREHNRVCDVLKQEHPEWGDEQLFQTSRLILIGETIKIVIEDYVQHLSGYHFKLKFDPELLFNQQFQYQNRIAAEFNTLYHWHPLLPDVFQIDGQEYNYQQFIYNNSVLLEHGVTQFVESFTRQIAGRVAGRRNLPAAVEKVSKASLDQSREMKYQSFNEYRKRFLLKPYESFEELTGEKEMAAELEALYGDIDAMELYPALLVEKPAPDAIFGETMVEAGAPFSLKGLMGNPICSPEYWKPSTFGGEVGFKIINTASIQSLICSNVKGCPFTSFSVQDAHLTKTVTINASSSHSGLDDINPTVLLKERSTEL

[2] = target: T2, PROBABLE TRANSMEMBRANE CARBONIC ANHYDRASE (CARBONATE DEHYDRATASE) (CARBONIC DEHYDRATASE) (Mycobacterium tuberculosis, UniProt P96878)
T2 sequence (P96878 whole entry): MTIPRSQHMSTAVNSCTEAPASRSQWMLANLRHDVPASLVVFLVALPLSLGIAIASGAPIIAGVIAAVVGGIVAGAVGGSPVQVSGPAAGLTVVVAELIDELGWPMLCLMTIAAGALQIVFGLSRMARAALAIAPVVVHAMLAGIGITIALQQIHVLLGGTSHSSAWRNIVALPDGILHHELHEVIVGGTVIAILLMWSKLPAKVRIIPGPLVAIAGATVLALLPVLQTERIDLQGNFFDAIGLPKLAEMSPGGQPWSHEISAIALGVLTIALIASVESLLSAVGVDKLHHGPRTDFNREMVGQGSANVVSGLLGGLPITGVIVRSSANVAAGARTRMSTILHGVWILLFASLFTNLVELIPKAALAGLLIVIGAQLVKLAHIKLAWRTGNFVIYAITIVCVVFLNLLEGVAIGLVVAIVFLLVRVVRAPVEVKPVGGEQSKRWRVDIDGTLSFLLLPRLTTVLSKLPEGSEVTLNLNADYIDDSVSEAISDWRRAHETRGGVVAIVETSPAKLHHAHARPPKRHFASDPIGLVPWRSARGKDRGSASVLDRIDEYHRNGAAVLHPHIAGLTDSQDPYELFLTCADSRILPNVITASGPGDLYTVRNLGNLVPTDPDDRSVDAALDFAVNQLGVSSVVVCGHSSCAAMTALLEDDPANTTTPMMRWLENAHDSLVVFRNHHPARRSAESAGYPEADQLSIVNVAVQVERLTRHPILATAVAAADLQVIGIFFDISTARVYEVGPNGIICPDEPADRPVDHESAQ
Description: Inhibition of Mycobacterium tuberculosis recombinant carbonic anhydrase Rv3273 pre-incubated for 15 mins by stopped-flow CO2 hydration method

Carbonic anhydrase 2 = target: T3, Carbonic anhydrase 2 (Mycobacterium tuberculosis, UniProt P9WPJ9)
T3 sequence (P9WPJ9 whole entry): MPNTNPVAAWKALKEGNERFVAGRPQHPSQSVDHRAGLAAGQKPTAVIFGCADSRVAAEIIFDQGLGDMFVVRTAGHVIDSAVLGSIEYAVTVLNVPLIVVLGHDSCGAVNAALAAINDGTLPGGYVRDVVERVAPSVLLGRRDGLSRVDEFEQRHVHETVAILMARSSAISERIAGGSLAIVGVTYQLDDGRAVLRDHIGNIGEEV
Description: Inhibition of Mycobacterium tuberculosis recombinant carbonic anhydrase Rv3588c pre-incubated for 15 mins by stopped-flow CO2 hydration method

[3] = target: T4, Beta-carbonic anhydrase 1 (Mycobacterium tuberculosis, UniProt P9WPJ7)
T4 sequence (P9WPJ7 whole entry): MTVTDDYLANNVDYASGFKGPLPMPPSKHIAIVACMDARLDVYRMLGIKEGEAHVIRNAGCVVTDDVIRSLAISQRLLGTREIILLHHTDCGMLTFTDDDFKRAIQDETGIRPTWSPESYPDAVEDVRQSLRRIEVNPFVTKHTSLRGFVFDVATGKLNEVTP
Description: Inhibition of Mycobacterium tuberculosis recombinant carbonic anhydrase Rv1284 pre-incubated for 15 mins by stopped-flow CO2 hydration method

Carbonic anhydrase 9 = Carbonic anhydrase 9 (Homo sapiens, UniProt Q16790)
Description: Inhibition of human recombinant CA9 catalytic domain pre-incubated for 15 mins by stopped-flow CO2 hydration method

Carbonic anhydrase 3 = Carbonic anhydrase 3 (Homo sapiens, UniProt P07451)
Sequence of Carbonic anhydrase 3 (P07451 whole entry): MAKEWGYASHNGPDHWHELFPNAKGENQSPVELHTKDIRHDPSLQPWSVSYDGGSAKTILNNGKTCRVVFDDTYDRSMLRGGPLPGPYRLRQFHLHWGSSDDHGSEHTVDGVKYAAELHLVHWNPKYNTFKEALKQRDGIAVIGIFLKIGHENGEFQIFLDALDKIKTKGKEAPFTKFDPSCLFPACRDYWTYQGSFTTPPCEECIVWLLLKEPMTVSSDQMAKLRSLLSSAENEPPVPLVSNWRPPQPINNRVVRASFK
Description: Inhibition of human recombinant full length CA3 pre-incubated for 15 mins by stopped-flow CO2 hydration method

SMILES | inhibition [1] | Ki [2] [nM] | Ki (Carbonic anhydrase 2) [nM] | Ki [3] [nM] | Ki (Carbonic anhydrase 9) [nM] | Ki (Carbonic anhydrase 3) [nM]
NS(=O)(=O)c1ccc(-n2ncc3c2-c2ccc(Cl)cc2SC3)cc1 | inactive | 316 | 235 | 412 | 1840 | 
Cc1ccc(-c2cc(C(F)(F)F)nn2-c2ccc(S(N)(=O)=O)cc2)cc1 [CELECOXIB] |  | 7760 |  |  |  | 7400
NS(=O)(=O)c1ccc(-n2ncc3c2-c2cccnc2SC3)cc1 | inactive | 286 | 273 | 134 | 2340 | 
NS(=O)(=O)c1ccc(-n2ncc3c2-c2ccc(C(F)(F)F)cc2SC3)cc1 | inactive | 238 | 357 | 613 | 2570 | 
COc1ccc2c(c1)SCc1cnn(-c3ccc(S(N)(=O)=O)cc3)c1-2 | inactive | 750 | 610 | 870 | 2180 | 
Cc1ccc2c(n1)SCc1cnn(-c3ccc(S(N)(=O)=O)cc3)c1-2 | inactive | 241 | 144 | 115 |  | 

From ChEMBL document CHEMBL2177016 (J Med Chem, 2012)
